PMC9311865, “Covalent Allosteric Inhibitors of Akt Generated Using a Click Fragment Approach” (Chemmedchem, 2022)

Key:
BT-474 cells = assay: CellTiter-Glo Luminescent Cell Viability Assay, BT-474; assay type: cell-based; conditions: Homo sapiens, BT-474; breast cancer cell line; mean ± SD, n=3; read-out: EC50 BT‐474
Akt2 = target: T1, Akt2 (Homo sapiens, UniProt P31751); assay: HTRF KinEASE assay, IC50 against Akt2; assay type: biochemical; conditions: wild-type Akt2; mean ± SD, n=3
T1 construct: purchased ProQinase
Description: (§1) The homogeneous time‐resolved fluorescence (HTRF®) KinEASE™ assay by Cisbio was used to determine the half‐maximal inhibitory concentration (IC50) values of the synthesised compounds against Akt1, Akt2 and Akt3 (Table 1).[26]
(§2) The HTRF® KinEASE™ assay (Cisbio) was used to determine the IC 50 values of the synthesised
(§3) al. (Akt2 and Akt3).1,5 The three wild-type Akt isoforms used were acquired from ProQinase.

Akt1 [1] = target: T2, Akt1 (Homo sapiens, UniProt P31749); assay: HTRF KinEASE assay, IC50 against Akt1; conditions: Akt1; repeated in Table 2 for comparison; mean ± SD, n=3
Description: as §1, §2, §3

wild-type Akt1 [2] = target: T3, wild-type Akt1 (Homo sapiens, UniProt P31749); parameters: method as in earlier work; conditions: ref 6a; cited from earlier work
T3 construct: made in house

ZR-75-1 cells = assay: CellTiter-Glo Luminescent Cell Viability Assay, ZR-75-1; assay type: cell-based; conditions: Homo sapiens, ZR-75-1; breast cancer cell line; mean ± SD, n=3; read-out: EC50 ZR‐75‐1
MCF-7 cells = assay: CellTiter-Glo Luminescent Cell Viability Assay, MCF-7; assay type: cell-based; conditions: Homo sapiens, MCF7; breast cancer cell line; mean ± SD, n=3; read-out: EC50 MCF‐7
Akt3 = Akt3 (Homo sapiens, UniProt Q9Y243); assay: HTRF KinEASE assay, IC50 against Akt3
Description: as §1, §2, §3

T47D cells = assay: CellTiter-Glo Luminescent Cell Viability Assay, T47D; assay type: cell-based; conditions: Homo sapiens, breast cancer cell line, mean ± SD, n=3
AN3CA cells = assay: CellTiter-Glo Luminescent Cell Viability Assay, AN3CA; assay type: cell-based; conditions: Homo sapiens, AN3-CA; endometrium cancer cell line; mean ± SD, n=3; read-out: EC50 AN3CA
Akt1 [3] = target: T2, Akt1; assay: Kinetic analysis with HTRF KinEASE (time-dependent IC50), kinetic parameters of inactivation; assay type: biochemical; parameters: purchased ProQinase; conditions: mean ± SD, n=3
Description: The kinetic parameters of inactivation, namely the inhibition constant (K I) and the rate constant of enzyme inactivation (k inact), are therefore preferentially used to describe irreversible inhibitors.[28] K I is defined as the concentration of inhibitor required for half of the maximum potential rate of covalent bond formation, while k inact is defined as the maximum potential rate of covalent bond formation.[29] The ratio of k inact over K I, k inact/K I, accounts for both the potency of the inhibitor (K I) and the maximum potential rate of covalent bond formation (k inact) and thus represents the second‐order rate constant describing the efficiency of covalent complex formation.[29] Using a protocol published by Krippendorff et al., K I and k inact can be directly estimated from time‐dependent IC50 determinations by kinetic analysis with HTRF® KinEASE™.[28]
Using a protocol published by Krippendorff et al., KI, kinact and kinact/KI could be directly
estimated from time-dependent IC50 determinations by kinetic analysis with HTRF® KinEASE™,

wild-type Akt1 [4] = target: T3, wild-type Akt1; assay: LC-MS identification of covalent binders after co-incubation with Akt1; assay type: binding; conditions: co-incubation with Akt1, Figure S1
Description: 2. Evaluation results … 4
4. Molecular Modelling … 57
indicated covalent binding.

KU-19-19 cells = assay: CellTiter-Glo Luminescent Cell Viability Assay, KU-19-19; assay type: cell-based; conditions: Homo sapiens, bladder cancer cell line, Akt1 E17K/E49K, mean ± SD, n=3
Method: The potential in vitro antiproliferative activity of the synthesised target compounds was investigated against a number of cancer cell lines by the CellTiter‐Glo® Luminescent Cell Viability Assay (from Promega Corporation, USA, catalogue number: G7570). The half‐maximal effective concentrations (EC50) of these compounds were determined against the AN3‐CA, BT‐474, KU‐19‐19, MCF‐7, T‐47D and ZR‐75‐1 cell lines originating from various tissues, i. e., breast, endometrium and bladder (Table S1). […]
The CellTiter-Glo® Luminescent Cell Viability Assay from Promega was used for the cellular assays, performed as explained by Weisner et al.7,8 Information on the cancer cell lines are given in Table S1, the control compounds used in Figure S3 and the results in Table S2.
Table S1. The cell lines used for the cellular assays, including what cancer type they are predominantly found in, and where the cell lines were acquired form.
Cell line Cancer type Acquired from AN3CA Endometrium ATCC (provided by Prof. Jan G. Hengstler at Leibniz-Institut für Arbeitsforschung Dortmund)
KU-19-19 Bladder Deutsche Sammlung von Mikroorganismen und Zellkulturen […]
BT-474 CLS Cell Lines Service (provided by Prof. Jan G. Hengstler at […] Leibniz-Institut für Arbeitsforschung Dortmund)

T2 sequence (P31749 whole entry): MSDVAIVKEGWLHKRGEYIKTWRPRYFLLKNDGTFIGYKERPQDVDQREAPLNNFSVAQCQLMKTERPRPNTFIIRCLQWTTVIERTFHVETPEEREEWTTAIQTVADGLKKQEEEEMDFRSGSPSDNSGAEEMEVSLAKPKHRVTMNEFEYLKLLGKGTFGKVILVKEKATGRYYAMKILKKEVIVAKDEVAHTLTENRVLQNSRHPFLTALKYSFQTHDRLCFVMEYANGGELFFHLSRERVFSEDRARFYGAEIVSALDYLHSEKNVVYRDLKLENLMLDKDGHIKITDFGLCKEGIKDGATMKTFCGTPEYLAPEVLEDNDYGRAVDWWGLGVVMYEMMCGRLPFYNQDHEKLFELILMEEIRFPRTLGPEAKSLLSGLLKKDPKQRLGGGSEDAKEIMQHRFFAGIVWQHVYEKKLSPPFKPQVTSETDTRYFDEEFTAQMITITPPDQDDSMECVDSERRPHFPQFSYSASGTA
T3 sequence (P31749 whole entry): as above
T1 sequence (P31751 whole entry): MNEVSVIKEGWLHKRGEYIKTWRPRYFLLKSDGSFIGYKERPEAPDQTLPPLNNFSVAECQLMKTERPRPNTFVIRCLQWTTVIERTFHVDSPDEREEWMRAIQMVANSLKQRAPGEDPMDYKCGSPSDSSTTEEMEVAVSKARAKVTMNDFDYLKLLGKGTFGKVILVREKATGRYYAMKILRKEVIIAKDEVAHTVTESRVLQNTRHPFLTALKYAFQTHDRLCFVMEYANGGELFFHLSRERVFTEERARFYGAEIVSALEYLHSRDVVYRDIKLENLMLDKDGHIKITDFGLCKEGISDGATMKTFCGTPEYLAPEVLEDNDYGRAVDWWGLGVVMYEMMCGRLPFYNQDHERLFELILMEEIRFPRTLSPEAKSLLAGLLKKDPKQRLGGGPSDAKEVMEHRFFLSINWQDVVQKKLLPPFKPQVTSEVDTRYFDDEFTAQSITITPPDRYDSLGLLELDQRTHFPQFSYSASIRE
Akt3, sequence (Q9Y243 whole entry): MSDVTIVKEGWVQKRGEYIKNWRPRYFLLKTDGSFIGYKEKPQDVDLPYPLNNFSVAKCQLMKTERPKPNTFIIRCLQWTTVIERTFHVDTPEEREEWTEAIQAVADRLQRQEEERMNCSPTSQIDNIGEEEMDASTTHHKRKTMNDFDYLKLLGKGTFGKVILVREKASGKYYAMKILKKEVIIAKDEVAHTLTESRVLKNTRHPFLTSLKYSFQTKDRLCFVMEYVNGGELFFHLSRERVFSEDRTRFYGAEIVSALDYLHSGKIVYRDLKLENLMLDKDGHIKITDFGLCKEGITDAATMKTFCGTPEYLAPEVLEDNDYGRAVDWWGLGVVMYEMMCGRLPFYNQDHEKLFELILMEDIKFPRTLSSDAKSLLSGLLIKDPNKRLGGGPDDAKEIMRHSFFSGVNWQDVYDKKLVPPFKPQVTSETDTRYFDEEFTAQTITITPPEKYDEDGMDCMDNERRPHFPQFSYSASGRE

C=CC(=O)Nc1cccc(-c2cn(C3CCN(Cc4ccc(-c5nc6ccccn6c5-c5ccccc5)cc4)CC3)nn2)c1 [Compound 3, N ‐[3‐(1‐{1‐[4‐(3‐Phenylimidazo[1,2‐a]pyridin‐2‐yl)benzyl]piperidin‐4‐yl}‐1H‐1,2,3‐triazol‐4‐yl)phenyl]acrylamide]
EC50 (BT-474 cells): 8.27 ± 0.862 µM
IC50 (Akt2): > 20 µM
IC50 (Akt1 [1]): 0.372 ± 0.0485 µM
covalent binding to Akt1, previously identified (wild-type Akt1 [2]): covalent binder
EC50 (ZR-75-1 cells): 2.17 ± 0.517 µM
EC50 (MCF-7 cells): 4.29 ± 1.13 µM
IC50 (Akt3): > 20 µM
EC50 (T47D cells): 4.07 ± 1.61 µM
EC50 (AN3CA cells): 4.75 ± 1.54 µM
Ki (Akt1 [3]; inhibition constant of inactivation): 0.497 ± 0.107 µM
k inact (Akt1 [3]): 0.071 ± 0.006 min⁻¹
k inact/K I (Akt1 [3]): 2000 ± 1000 M⁻¹ s⁻¹
covalent binding to Akt1 (mass increase by LC-MS) (wild-type Akt1 [4]): quantitative protein labelling
EC50 (KU-19-19 cells): 12.4 ± 2.88 µM
